Read-outs that look alike come from different tables or passages of the source.
What was measured:
E. coli CSH2 (RK1) = assay: microbe, parasite or virus in culture; assay type: cell-based; conditions: Escherichia coli, 16 h, read-out: Minimum Inhibitory Concentration (MIC), *E. coli CSH2 (RK1), lactamase-producing strain; 10^6 CFU/ml
Procedure, shortened: (§1)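 First, strains were cultured overnight in Mueller Hinton broth. Next, one loopful went onto drug-containing Mueller Hinton agar (10^6 CFU/ml). Finally, after 37° C. incubation for 16 hours, MIC was determined in μg/ml.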

E. coli CSH(RE45) = assay: microbe, parasite or virus in culture; assay type: cell-based; conditions: Escherichia coli, 16 h, read-out: Minimum Inhibitory Concentration (MIC), *E. coli CSH(RE45), lactamase-producing strain; 10^6 CFU/ml
Procedure, shortened: as §1

Ps. aeruginosa AKR17 = assay: in vitro antibacterial activity, agar plate dilution method (MIC); assay type: cell-based, Pseudomonas aeruginosa; conditions: Pseudomonas aeruginosa, 16 h; Ps. aeruginosa AKR17; 10^6 CFU/ml; read-out: Minimum Inhibitory Concentration (MIC)
Procedure, shortened: as §1

Ps. aeruginosa IF03445 = assay: as above; assay type: cell-based, Pseudomonas aeruginosa; conditions: Pseudomonas aeruginosa, 10^6 CFU/ml
Procedure, shortened: as §1

Ps. aeruginosa AK 109 = assay: as above; assay type: cell-based, Pseudomonas aeruginosa; conditions: Pseudomonas aeruginosa, AK109, 16 h, read-out: Minimum Inhibitory Concentration (MIC)
Procedure, shortened: as §1

Ps. cepacia 23 = assay: as above; assay type: cell-based, Pseudomonas cepacia; conditions: Burkholderia cepacia, 16 h; Ps. cepacia 23; 10^6 CFU/ml; read-out: Minimum Inhibitory Concentration (MIC)
Procedure, shortened: as §1

S. aureus 209P NIHJ-JC1 = assay: as above; assay type: cell-based; conditions: Staphylococcus aureus, 16 h, read-out: Minimum Inhibitory Concentration (MIC), S. aureus 209P NIHJ-JC1; 10^6 CFU/ml, 37° C., 16 hours
Procedure, shortened: as §1

E. coli GN5482 = assay: as above; assay type: cell-based; conditions: Escherichia coli, GN5482, 16 h, read-out: Minimum Inhibitory Concentration (MIC)
Procedure, shortened: as §1

S. marcescens IAM 1184 = assay: as above; assay type: cell-based; conditions: Serratia marcescens, IAM1184, 16 h, read-out: Minimum Inhibitory Concentration (MIC)
Procedure, shortened: as §1

E. cloacae 963 = assay: as above; assay type: cell-based; conditions: 10^6 CFU/ml
Procedure, shortened: as §1

P. vulgaris HX-19 = assay: as above; assay type: cell-based; conditions: Proteus vulgaris, HX19, 16 h, P. vulgaris HX-19; 10^6 CFU/ml; read-out: Minimum Inhibitory Concentration (MIC)
Procedure, shortened: as §1

E. coli NIHJ JC2 = assay: as above; assay type: cell-based; conditions: Escherichia coli, NIHJJC2, 16 h, read-out: Minimum Inhibitory Concentration (MIC), E. coli NIHJ JC2, 10^6 CFU/ml, 37° C.
Procedure, shortened: as §1

K. pneumoniae No. 42 = assay: as above; assay type: cell-based; conditions: Klebsiella pneumoniae, NO.42, 16 h, read-out: Minimum Inhibitory Concentration (MIC), *K. pneumoniae No. 42, lactamase-producing strain; 10^6 CFU/ml
Procedure, shortened: as §1

P. vulgaris No. 33 = assay: as above; assay type: cell-based; conditions: Proteus vulgaris, NO.33, 16 h, read-out: Minimum Inhibitory Concentration (MIC), *P. vulgaris No. 33, lactamase-producing strain; 10^6 CFU/ml
Procedure, shortened: as §1

S. marcescens No. 16-2 = assay: as above; assay type: cell-based; conditions: Serratia marcescens, NO.162, 16 h, read-out: Minimum Inhibitory Concentration (MIC), *S. marcescens No. 16-2, lactamase-producing strain; 10^6 CFU/ml
Procedure, shortened: as §1

E. cloacae Nek 39 = assay: as above; assay type: cell-based; conditions: Enterobacter cloacae, NEK39, 16 h, read-out: Minimum Inhibitory Concentration (MIC), *E. cloacae Nek 39, lactamase-producing strain; 10^6 CFU/ml
Procedure, shortened: as §1

K. pneumoniae PCI-602 = assay: as above; assay type: cell-based; conditions: Klebsiella pneumoniae, PCI602, 16 h, read-out: Minimum Inhibitory Concentration (MIC), K. pneumoniae PCI-602; 10^6 CFU/ml
Procedure, shortened: as §1

K. oxytoca GN10650 = assay: as above; assay type: cell-based; conditions: Klebsiella oxytoca, GN10650, 16 h, read-out: Minimum Inhibitory Concentration (MIC), *K. oxytoca GN10650, lactamase-producing strain; 10^6 CFU/ml
Procedure, shortened: as §1

M. morganii GN5407 = assay: as above; assay type: cell-based; conditions: Morganella morganii, GN5407, 16 h, read-out: Minimum Inhibitory Concentration (MIC), *M. morganii GN5407, lactamase-producing strain; 10^6 CFU/ml
Procedure, shortened: as §1

A. calcoaceticus No. 4 = assay: as above; assay type: cell-based, Acinetobacter calcoaceticus; conditions: Acinetobacter calcoaceticus, NO.4, 16 h, read-out: Minimum Inhibitory Concentration (MIC), A. calcoaceticus No. 4; 10^6 CFU/ml
Procedure, shortened: as §1

[1] = IF03445, 16 h, read-out: Minimum Inhibitory Concentration (MIC), Ps. aeruginosa IF03445
[2] = 16 h, Ps. aeruginosa IF03445, read-out: Minimum Inhibitory Concentration (MIC)
[3] = Ps. aeruginosa AK 109, 10^6 CFU/ml
[4] = S. marcescens IAM 1184, 10^6 CFU/ml
[5] = Enterobacter cloacae, 16 h, E. cloacae 963, read-out: Minimum Inhibitory Concentration (MIC)

CCO/N=C(\C(=O)N[C@@H]1C(=O)N2C(C(=O)O)=C(CSc3nnc(-c4ccc(O)c(O)c4)o3)CS[C@H]12)c1csc(N)n1 [Ex. 5, sodium 7β-[2-(2-aminothiazol-4-yl)-2-ethoxyiminoacetamido]-3-[5-(3,4-dihydroxyphenyl)-1,3,4-oxadiazol-2-yl]thiomethyl-3-cephem-4-carboxylate]
MIC (E. coli CSH2 (RK1)): 0.0125 µg/mL | MIC (E. coli CSH(RE45)): 0.0125 µg/mL | MIC (Ps. aeruginosa AKR17): > 100 µg/mL | MIC (Ps. aeruginosa IF03445; [1]): 0.39 µg/mL | MIC (Ps. aeruginosa AK 109): 0.39 µg/mL | MIC (Ps. cepacia 23): < 0.006 µg/mL | MIC (S. aureus 209P NIHJ-JC1): 0.78 µg/mL | MIC (E. coli GN5482): 0.39 µg/mL | MIC (S. marcescens IAM 1184): 0.0125 µg/mL | MIC (E. cloacae 963; Enterobacter cloacae, 963, 16 h, read-out: Minimum Inhibitory Concentration (MIC), E. cloacae 963): 0.0125 µg/mL | MIC (P. vulgaris HX-19): < 0.006 µg/mL | MIC (E. coli NIHJ JC2): 0.05 µg/mL | MIC (K. pneumoniae No. 42): 0.05 µg/mL | MIC (P. vulgaris No. 33): 0.025 µg/mL | MIC (S. marcescens No. 16-2): 0.78 µg/mL | MIC (E. cloacae Nek 39): 0.1 µg/mL | MIC (K. pneumoniae PCI-602): < 0.006 µg/mL | MIC (K. oxytoca GN10650): 0.78 µg/mL | MIC (M. morganii GN5407): 0.025 µg/mL | MIC (A. calcoaceticus No. 4): 0.1 µg/mL

CCO/N=C(\C(=O)N[C@@H]1C(=O)N2C(C(=O)O)=C(CSc3nnc(-c4ccc(OC(C)=O)c(OC(C)=O)c4)o3)CS[C@H]12)c1csc(N)n1 [Ex. 6, sodium 3-[5-(3,4-diacetoxyphenyl)-1,3,4-oxadiazol-2-yl]thiomethyl-78-[2-(2-aminothiazol-4-yl)-2-ethoxyiminoacetamido]-3-cephem-4-carboxylate]
MIC (E. coli CSH2 (RK1)): 0.0125 µg/mL | MIC (E. coli CSH(RE45)): 0.78 µg/mL | MIC (Ps. aeruginosa AKR17): > 100 µg/mL | MIC (Ps. aeruginosa IF03445; [2]): 0.2 µg/mL | MIC (Ps. aeruginosa AK 109; [3]): 0.1 µg/mL | MIC (Ps. cepacia 23): 0.05 µg/mL | MIC (S. aureus 209P NIHJ-JC1): 1.56 µg/mL | MIC (E. coli GN5482): 0.39 µg/mL | MIC (S. marcescens IAM 1184; [4]): < 0.006 µg/mL | MIC (E. cloacae 963; [5]): < 0.006 µg/mL | MIC (P. vulgaris HX-19): < 0.006 µg/mL | MIC (E. coli NIHJ JC2): 0.05 µg/mL | MIC (K. pneumoniae No. 42): 0.025 µg/mL | MIC (P. vulgaris No. 33): 0.0125 µg/mL | MIC (S. marcescens No. 16-2): 0.78 µg/mL | MIC (E. cloacae Nek 39): 0.05 µg/mL | MIC (K. pneumoniae PCI-602): < 0.006 µg/mL | MIC (K. oxytoca GN10650): 0.39 µg/mL | MIC (M. morganii GN5407): 0.0125 µg/mL | MIC (A. calcoaceticus No. 4): 0.1 µg/mL

CC(C)O/N=C(\C(=O)N[C@@H]1C(=O)N2C(C(=O)O)=C(CSc3nnc(-c4ccc(O)c(O)c4)o3)CS[C@H]12)c1csc(N)n1 [Ex. 7, sodium 78-[2-(2-aminothiazol-4-yl)-2-isopropoxyiminoacetamido]-3-[5-(3,4-dihydroxyphenyl)-1,3,4-oxadiazol-2-yl]thiomethyl-3-cephem-4-carboxylate]
MIC (E. coli CSH2 (RK1)): < 0.006 µg/mL | MIC (E. coli CSH(RE45)): 1.56 µg/mL | MIC (Ps. aeruginosa AKR17): 50 µg/mL | MIC (Ps. aeruginosa IF03445; [1]): 0.39 µg/mL | MIC (Ps. aeruginosa AK 109; [3]): 0.2 µg/mL | MIC (Ps. cepacia 23): < 0.006 µg/mL | MIC (S. aureus 209P NIHJ-JC1): 1.56 µg/mL | MIC (E. coli GN5482): 0.39 µg/mL | MIC (S. marcescens IAM 1184; [4]): 0.025 µg/mL | MIC (E. cloacae 963; [5]): 0.0125 µg/mL | MIC (P. vulgaris HX-19): < 0.006 µg/mL | MIC (E. coli NIHJ JC2): 0.1 µg/mL | MIC (K. pneumoniae No. 42): 0.025 µg/mL | MIC (P. vulgaris No. 33): 0.0125 µg/mL | MIC (S. marcescens No. 16-2): 1.56 µg/mL | MIC (E. cloacae Nek 39): 0.05 µg/mL | MIC (K. pneumoniae PCI-602): < 0.006 µg/mL | MIC (K. oxytoca GN10650): 0.1 µg/mL | MIC (M. morganii GN5407): 0.0125 µg/mL | MIC (A. calcoaceticus No. 4): 0.1 µg/mL

C=CCO/N=C(\C(=O)N[C@@H]1C(=O)N2C(C(=O)O)=C(CSc3nnc(-c4ccc(O)c(O)c4)o3)CS[C@H]12)c1csc(N)n1 [Ex. 8, sodium 7β-[2-allyloxyimino-2-(2-aminothiazol-4-yl)acetamido]-3-[5-(3,4-dihydroxyphenyl)-1,3,4-oxadiazol-2-yl]thiomethyl-3-cephem-4carboxylate]
MIC (E. coli CSH2 (RK1)): < 0.006 µg/mL | MIC (E. coli CSH(RE45)): 0.78 µg/mL | MIC (Ps. aeruginosa AKR17): 100 µg/mL | MIC (Ps. aeruginosa IF03445; [2]): 0.2 µg/mL | MIC (Ps. aeruginosa AK 109; [3]): 0.2 µg/mL | MIC (Ps. cepacia 23): 0.025 µg/mL | MIC (S. aureus 209P NIHJ-JC1): 0.78 µg/mL | MIC (E. coli GN5482): 0.39 µg/mL | MIC (S. marcescens IAM 1184; [4]): 0.0125 µg/mL | MIC (E. cloacae 963; [5]): < 0.006 µg/mL | MIC (P. vulgaris HX-19): < 0.006 µg/mL | MIC (E. coli NIHJ JC2): 0.1 µg/mL | MIC (K. pneumoniae No. 42): 0.05 µg/mL | MIC (P. vulgaris No. 33): 0.0125 µg/mL | MIC (S. marcescens No. 16-2): 1.56 µg/mL | MIC (E. cloacae Nek 39): 0.05 µg/mL | MIC (K. pneumoniae PCI-602): < 0.006 µg/mL | MIC (K. oxytoca GN10650): 3.12 µg/mL | MIC (M. morganii GN5407): 0.0125 µg/mL | MIC (A. calcoaceticus No. 4): 0.1 µg/mL
